Source: patent US8426203B2, “Culture medium containing gamma-aminobutyric acid, pipecolic acid or lithium for the maintenance of stem cells in an undifferentiated state” (Wisconsin Alumni Research Foundation, priority 2004, dated 2013)

Columns and labels:
ES03-DL1-K hES cells = test: Cloning efficiency at different BME concentrations in TeSR1; format: cell-based, human
Procedure: FIG. 15 illustrates the growth of hES cells grown in mTeSR1 with five different concentrations of beta mercaptoethanol (βME). ES03-DL1-K were grown for one to five passages, visualized (a), counted to determine proliferation and cloning efficiency (b), and stained using […] for Oct-4 and SSEA-4 to identify differentiation status of the cells (c). The treatment concentrations consisted of 0, 1.75, 3.5, 7, and 14 μL βME/500 mL of total TeSR1 media. Results shown are the mean from growth in 3 wells/treatment. This experiment was repeated multiple times both with ES03-DL1-K and H9-WA09 cells with similar results.
Specifically, to optimize the physiochemical environment, human ES cells with an EGFP reporter gene and a neomycin resistance cassette under control of the endogenous Oct-4 gene were utilized for the physiochemical optimization assays. […] At the end of the growth period, cells from independent wells were individualized by treatment with trypsin/EDTA, counted and subjected to FACS analysis as subsequently described. To determine cloning efficiency of the cells, resulting colonies were stained with BCIP/NTB alkaline phosphatase substrate kit IV (Vector Laboratories) and counted. Percentages were determined by dividing colony number obtained by the initial number of cells plated. […]

[1] = test system: human pluripotent stem cells; test: Omission of medium components, Oct-4 expression after seven days; format: cell-based; conditions: for effect of omitting constituent on percentage of undifferentiated cells: Oct-4 expression
Procedure: While a medium with all of the above constituents is sufficient and is preferred, not all of the components are necessary for the successful culture of human pluripotent stem cells. Depending on the amount of differentiated cells one is willing to tolerate, some of the components of the medium can be omitted, particularly if the medium is only used for a few passages. To further explore which constituents might be omitted, human pluripotent stem cells were cultured on variants of the above medium with differing components omitted. Two hundred thousand cells were plated and grown for seven days on each experimental medium, two wells per treatment. The cells were then assayed for expression of the transcription factor Oct-4, a recognized marker of undifferentiated cells.
The data from that experiment are presented graphically in FIG. 7, where the numbers of Oct-4 expressing cells in each experimental medium are presented as a fraction of that from the preferred medium TeSR1. […] The difference between the percentage of undifferentiated cells and the omitted constituent is quantitative. Regardless of the omitted constituent, the medium does work, at least to some degree for limited cell passages, without each of the omitted components.

human ES cells = test: TeSR1 minus individual components, growth curve and FACS over three passages; format: cell-based
Procedure: FIG. 4 is a graphical representation of data showing that the medium described here results in robust growth of pluripotent stem cells in culture. Specifically, what is shown is growth curve analysis for human ES cells cultured in complete TeSR1 (positive control), and TeSR1 minus the following individual components: TGFβ, pipecolic acid (PA), GABA, LiCl and bFGF, and TeSR1 minus all five growth factors (TeSR1—ALL or negative control); 3×10^5 cells were plated at day 0 of each passage.
Triplicate wells of resulting cells were analyzed on day 6 of passage 3 by FACS for human ES cell markers. All results are presented for the H1 cell line; similar results were obtained for cell lines H7, H9 and H14.
Inventors used human ES cell lines H1, H7, H9 and H14 (Thomson, J. A. et al. Science 282, 1145-1147 (1998)) in a program of human ES cell media optimization that included modifications to the physiochemical environment, growth factor supplements and matrix components. To accomplish this, human ES cell lines H1, H7, H9, and H14 were cultured on Matrigel (Becton Dickinson) in fibroblast-conditioned medium as previously described (Xu, C. et al. Nature Biotechnology 19, 971-974 (2001)). Cells were transitioned into test media by direct passage from conditioned medium. Cultures of human ES cells were routinely passaged in clumps at approximately weekly intervals onto Matrigel or human matrix-coated plates by exposure to dispase (2.0 or 0.5 mg/ml respectively: Invitrogen). Following 7 minutes of dispase exposure, cells were rinsed 3 (three) times on the plate with medium, followed by gentle scraping to collect. Colonies were further broken up by gentle pipetting and then plated. The human matrix-coated plates were composed of 10 μg/cm^2 human collagen IV (Sigma or Becton Dickinson), 0.2 μg/cm^2 human vitronectin (Sigma), 5 μg/cm^2 human fibronectin (Sigma or Becton Dickinson) and 5 μg/cm^2 human laminin (Sigma). During the course of these studies we successfully used 4 lots of fibronectin, 2 lots of collagen, 3 lots of laminin, and 3 lots of vitronectin. For growth curve proliferation studies, 3-5×10^5 cells were plated on Day 0 of each passage into conditioned medium, TeSR1 or TeSR1 minus the following components: TGFβ, PA, GABA, LiCl and bFGF. Cells were cultured for three passages. Cells were harvested on Day 2-3 and Day 6-7 and counted using a Trypan Blue exclusion assay. At the end of passage three, cells were individualized by treatment with trypsin/EDTA and were analyzed by FACS for human ES cell markers Oct-4, SSEA-4, Tra 1-60 and Tra 1-81 as subsequently described.

OCCS [BME, β-mercaptoethanol]
cloning efficiency of the cells (ES03-DL1-K hES cells; 0 and 1.75 μL BME/500 mL of total media, modified TeSR1): large increases in cloning efficiency | increase in cloning efficiency (ES03-DL1-K hES cells; BME omitted or less than about 0.1 mM in TeSR1 vs same medium with higher than about 0.1 mM BME): at least 10%

NCCCC(=O)O [GABA, gamma-aminobutyric acid]
effect of omitting constituent on percentage of undifferentiated cells [1]: increased percentages of undifferentiated cells | effect of removal of the factor from TeSR1 on culture performance (human ES cells): significantly decreased some parameter of culture performance

[Cl-].[Li+] [LiCl, lithium chloride]
effect of omitting constituent on percentage of undifferentiated cells [1]: increased percentages of undifferentiated cells | effect of removal of the factor from TeSR1 on culture performance (human ES cells): significantly decreased some parameter of culture performance

O=C(O)C1CCCCN1 (stereo not shown) [PA, pipecolic acid]
effect of omitting constituent on percentage of undifferentiated cells [1]: increased percentages of undifferentiated cells | effect of removal of the factor from TeSR1 on culture performance (human ES cells): significantly decreased some parameter of culture performance

TGFβ: transforming growth factor beta
necessity of component (Oct-4 expressing cells as fraction of TeSR1) ([1]; short-term culture, high levels of FGF): least necessary component | effect of removal of the factor from TeSR1 on culture performance (human ES cells): significantly decreased some parameter of culture performance

bFGF: fibroblast growth factor, also referred to as FGF2
effect of omitting constituent on percentage of undifferentiated cells [1]: increased percentages of undifferentiated cells | effect of removal from TeSR1 on total cell number and percentage of cells expressing ES cell markers (human ES cells): consistently decreased | effect of removal of the factor from TeSR1 on culture performance (human ES cells): significantly decreased some parameter of culture performance
